Laboratory results published in the NIST ThermoML archive (doi:10.1016/j.jct.2011.10.009).

Assay: xn = mol fraction of the nth substance listed
Conditions: 101 kPa, Liquid, Vibrating tube method

[2H]C(C)O (stereo not given) [ethanol-1-d] + [2H]O[2H]
mass density [kg/m3]
Conditions | 278.15 K | 288.15 K | 298.15 K | 308.15 K | 318.15 K
x2 = 0.001004 | 819.11 | 810.48 | 801.72 | 792.83 | 783.78
x2 = 0.00168 | 819.21 | 810.58 | 801.83 | 792.94 | 783.89
x2 = 0.00308 | 819.43 | 810.8 | 802.05 | 793.15 | 784.1
x2 = 0.005192 | 819.67 | 811.12 | 802.37 | 793.47 | 784.42
x2 = 0.008159 | 820.22 | 811.58 | 802.83 | 793.93 | 784.87
x2 = 0.01089 | 820.65 | 812.01 | 803.25 | 794.34 | 785.28
x2 = 0.01426 | 821.17 | 812.53 | 803.76 | 794.86 | 785.79
x2 = 0.0173 | 821.64 | 813 | 804.23 | 795.32 | 786.25
x2 = 0.02028 | 822.1 | 813.46 | 804.69 | 795.77 | 786.7
x2 = 0.02325 | 822.56 | 813.91 | 805.14 | 796.22 | 787.14
x2 = 0.02639 | 823.05 | 814.4 | 805.62 | 796.7 | 787.61
x2 = 0.03026 | 823.65 | 814.99 | 806.21 | 797.28 | 788.19
x2 = 0.03472 | 824.23 | 815.57 | 806.78 | 797.85 | 788.76
x2 = 0.03723 | 824.72 | 816.06 | 807.27 | 798.33 | 789.23

CCO [ethanol] + O
mass density [kg/m3]
Conditions | 278.15 K | 288.15 K | 298.15 K | 308.15 K | 318.15 K
x2 = 0.0009961 | 802.2 | 793.72 | 785.15 | 776.47 | 767.66
x2 = 0.002144 | 802.34 | 793.86 | 785.29 | 776.61 | 767.79
x2 = 0.004143 | 802.59 | 794.1 | 785.53 | 776.85 | 768.03
x2 = 0.00674 | 802.91 | 794.42 | 785.85 | 777.16 | 768.34
x2 = 0.009286 | 803.22 | 794.73 | 786.16 | 777.47 | 768.65
x2 = 0.01189 | 803.54 | 795.06 | 786.48 | 777.79 | 768.96
x2 = 0.01442 | 803.85 | 795.37 | 786.79 | 778.09 | 769.26
x2 = 0.01794 | 804.29 | 795.8 | 787.22 | 778.52 | 769.69
x2 = 0.02115 | 804.68 | 796.2 | 787.61 | 778.92 | 770.08
x2 = 0.02506 | 805.17 | 796.68 | 788.1 | 779.4 | 770.56
x2 = 0.0292 | 805.69 | 797.2 | 788.61 | 779.91 | 771.06
x2 = 0.03125 | 805.94 | 797.46 | 788.87 | 780.16 | 771.31
x2 = 0.0336 | 806.24 | 797.75 | 789.16 | 780.45 | 771.6
x2 = 0.03661 | 806.61 | 798.13 | 789.54 | 780.83 | 771.97
